The NIST ThermoML archive (doi:10.1021/je025657+)
Where “and” joins values, the source holds several entries; their conditions need not be identical. Equal values may be shown once. Numbers after ± are expanded uncertainties.

Conditions: for vapor or sublimation pressure: Closed cell (Static) method

In the case of `COC(F)(F)F` [trifluoromethoxymethane], the mass density (310 K, 83.1 kPa, Gas) is reported as 3.29 ± 0.26 kg/m3, the mass density (310 K, 121.9 kPa, Gas) is reported as 4.87 ± 0.27 kg/m3 and the mass density (310 K, 128.7 kPa, Gas, Burnett expansion method) is reported as 5.137 ± 0.1 kg/m3. The mass density (310 K, 177.1 kPa, Gas, Burnett expansion method) was 7.139 ± 0.1 kg/m3, the mass density (310 K, 178.2 kPa, Gas) was 7.22 ± 0.27 kg/m3 and the mass density (310 K, 190.3 kPa, Gas, Burnett expansion method) was 7.705 ± 0.11 kg/m3. The mass density (310 K, 258.9 kPa, Gas) was 10.69 ± 0.28 kg/m3, the mass density (310 K, 261 kPa, Gas, Burnett expansion method) was 10.74 ± 0.11 kg/m3 and the mass density (310 K, 279.4 kPa, Gas, Burnett expansion method) was 11.56 ± 0.11 kg/m3. It also gave a mass density (310 K, 372.5 kPa, Gas) of 15.8 ± 0.3 kg/m3, a mass density (310 K, 380.4 kPa, Gas, Burnett expansion method) of 16.14 ± 0.11 kg/m3 and a mass density (310 K, 405 kPa, Gas, Burnett expansion method) of 17.3 ± 0.11 kg/m3. It also gave a mass density (310 K, 528.4 kPa, Gas) of 23.4 ± 0.33 kg/m3, a mass density (310 K, 545.9 kPa, Gas, Burnett expansion method) of 24.27 ± 0.11 kg/m3 and a mass density (310 K, 578.6 kPa, Gas, Burnett expansion method) of 25.97 ± 0.11 kg/m3. For the same compound, the mass density (310 K, 742.6 kPa, Gas) was 35.17 ± 0.37 kg/m3, the mass density (310 K, 759.9 kPa, Gas, Burnett expansion method) was 36.24 ± 0.11 kg/m3 and the mass density (310 K, 813.1 kPa, Liquid) was 1051.26 ± 0.46 kg/m3. For the same compound, the mass density (310 K, 836.7 kPa, Liquid) was 1051.44 ± 0.46 kg/m3, the mass density (310 K, 861.7 kPa, Liquid) was 1051.63 ± 0.46 kg/m3 and the mass density (310 K, 1006.3 kPa, Liquid) was 1053.19 ± 0.47 kg/m3. It also gave a mass density (310 K, 1033.6 kPa, Liquid) of 1052.9 ± 0.47 kg/m3, a mass density (310 K, 1512.4 kPa, Liquid) of 1056.88 ± 0.48 kg/m3 and a mass density (310 K, 1533.9 kPa, Liquid) of 1056.54 ± 0.48 kg/m3. It also gave a mass density (310 K, 2000.5 kPa, Liquid) of 1060.31 ± 0.5 kg/m3, a mass density (310 K, 2046.2 kPa, Liquid) of 1060.13 ± 0.5 kg/m3 and a mass density (310 K, 2498.6 kPa, Liquid) of 1063.7 ± 0.52 kg/m3. The mass density (310 K, 2539.9 kPa, Liquid) was 1063.48 ± 0.52 kg/m3, the mass density (310 K, 3027.3 kPa, Liquid) was 1067.18 ± 0.54 kg/m3 and the mass density (310 K, 3099.5 kPa, Liquid) was 1067.15 ± 0.54 kg/m3. The mass density (310 K, 3517 kPa, Liquid) was 1070.31 ± 0.56 kg/m3, the mass density (310 K, 3564.5 kPa, Liquid) was 1070.1 ± 0.56 kg/m3 and the mass density (310 K, 4017.7 kPa, Liquid) was 1073.4 ± 0.58 kg/m3. It also gave a mass density (310 K, 4131.5 kPa, Liquid) of 1073.59 ± 0.58 kg/m3, a mass density (310 K, 4531.7 kPa, Liquid) of 1076.5 ± 0.6 kg/m3 and a mass density (310 K, 5049.8 kPa, Liquid) of 1079.54 ± 0.62 kg/m3. It also gave a mass density (310 K, 5149.7 kPa, Liquid) of 1079.59 ± 0.62 kg/m3, a mass density (310 K, 5542 kPa, Liquid) of 1082.34 ± 0.64 kg/m3 and a mass density (310 K, 5630.8 kPa, Liquid) of 1082.31 ± 0.65 kg/m3. For the same compound, the mass density (310 K, 6021.1 kPa, Liquid) was 1085.02 ± 0.67 kg/m3, the mass density (310 K, 6210.4 kPa, Liquid) was 1085.5 ± 0.68 kg/m3 and the mass density (310 K, 6538.6 kPa, Liquid) was 1087.83 ± 0.7 kg/m3. For the same compound, the mass density (310 K, 6998 kPa, Liquid) was 1090.22 ± 0.72 kg/m3, the mass density (310 K, 7191.1 kPa, Liquid) was 1090.69 ± 0.73 kg/m3 and the mass density (310 K, Liquid) was 1054.67 ± 1.7 kg/m3 [middle of 4 runs]. For the same compound, the “vapor or sublimation pressure” value (310 K, Liquid) was 800.9 ± 1.4 kPa and 800.7 ± 1.4 kPa and 801.7 ± 1.4 kPa, the “vapor or sublimation pressure” value (315 K, Liquid) was 914.3 ± 1.5 kPa and the mass density (320 K, 46.4 kPa, Gas) was 1.77 ± 0.26 kg/m3. The mass density (320 K, 68.4 kPa, Gas) was 2.64 ± 0.26 kg/m3, the mass density (320 K, 100.6 kPa, Gas) was 3.89 ± 0.26 kg/m3 and the mass density (320 K, 133.1 kPa, Gas, Burnett expansion method) was 5.135 ± 0.1 kg/m3. For the same compound, the mass density (320 K, 147.5 kPa, Gas) was 5.74 ± 0.27 kg/m3, the mass density (320 K, 183.4 kPa, Gas, Burnett expansion method) was 7.139 ± 0.1 kg/m3 and the mass density (320 K, 197.1 kPa, Gas, Burnett expansion method) was 7.701 ± 0.1 kg/m3. It also gave a mass density (320 K, 215.4 kPa, Gas) of 8.49 ± 0.28 kg/m3, a mass density (320 K, 270.9 kPa, Gas, Burnett expansion method) of 10.74 ± 0.11 kg/m3 and a mass density (320 K, 289.9 kPa, Gas, Burnett expansion method) of 11.55 ± 0.11 kg/m3. It also gave a mass density (320 K, 312.9 kPa, Gas) of 12.57 ± 0.29 kg/m3 and a mass density (320 K, 395.7 kPa, Gas, Burnett expansion method) of 16.14 ± 0.11 kg/m3.
